Data on 34 molecules can be found in US11491148B2, “Amide derivatives useful in the treatment of HBV infection or HBV-induced diseases” (Janssen Sciences Ireland Unlimited Company, priority 2019, dated 2022).

In one data set the test system is HBV. Put plainly: Anti-HBV activity, intracellular HBV DNA by real-time PCR (HBV-AVE-HepG2.117). It is filed as cell-based, Hepatitis B virus. Particulars: read-out: HBV-AVE-HepG2.117 EC50 (μM; mean value). As for the experimental part:
The anti HBV activity was measured using the HepG2.117 cell line, a stable, inducible HBV producing cell line, which replicates HBV in the absence of doxicycline (Tet-off system). The HepG2 cell line is available from ATCC®) under number HB-8065. Transfection of the HepG2 cell line can be as described in Sun and Nassal 2006 Journal of Hepatology 45 (2006) 636-645 “Stable HepG2- and Huh7-based human hepatoma cell lines for efficient regulated expression of infectious hepatitis B virus”.
For the antiviral assay, HBV replication was induced, followed by a treatment with serially diluted compound in 96-well plates. After 3 days of treatment, the antiviral activity was determined by quantification of intracellular HBV DNA using real-time PCR and an HBV specific primer set and probe.
On the technique in general: Quantitative PCR measures a nucleic acid by following its amplification.

Data set [1] in a line: Cytotoxicity, ATPlite cell viability (TOX-HepG2.117). The note with it: human; HepG2.117 cells, incubated for 3 days, ATPlite, mean value. It is filed as cell-based, human. How it is done:
Cytotoxicity of the compounds was tested using HepG2 or HepG2.117 cells, incubated for 3 days in the presence of compounds. The viability of the cells was assessed using the Perkin Elmer ATPlite Luminescence Assay System.”
For orientation: ATP-based viability assays read luminescence as a measure of living cells.

Setting [2] is: Hepatitis B virus, HepG2.117, 72 h, HepG2.117 cell line, 3 days of treatment, intracellular HBV DNA, mean value.
The mark [3] stands for this setting: Hepatitis B virus, HepG2.117, 72 h.

SMILES strings stand for the structures. Where a name gives a salt, the structure may show the parent alone. Read-outs that look alike come from different tables or passages of the source. Bounds are passed on as bounds.

Take `C[C@H]1[C@@H](C(=O)Nc2ccc(Cl)c(Cl)c2)CCN1C(=O)C(=O)N[C@H](CC(F)(F)F)c1c[nH]nn1` (single isomer, unassigned) [C25R*]: the EC50 in the data set on HBV (setting [2]) was found to be 0.017 µM. In data set [1], this molecule registered a CC50 at 3 days of 25.7 µM.
The corresponding values for `C[C@H]1[C@@H](C(=O)Nc2ccc(Cl)c(Cl)c2)CCN1C(=O)C(=O)N[C@@H](CC(F)(F)F)c1c[nH]nn1` (single isomer, unassigned) [C25S*] are 0.074 µM and above 50 µM.
On to `C[C@H]1[C@@H](C(=O)Nc2ccc(F)c(C#N)c2)CCN1C(=O)C(=O)N[C@H](CC(F)(F)F)c1c[nH]nn1` (single isomer, unassigned) [C28R*], for which the EC50 in the data set with HBV (setting [2]) worked out at 0.032 µM. In data set [1], this molecule had a CC50 at 3 days above 50 µM.
Consider `C[C@H]1[C@@H](C(=O)Nc2ccc(F)c(C#N)c2)CCN1C(=O)C(=O)N[C@@H](CC(F)(F)F)c1c[nH]nn1` (single isomer, unassigned) [C28S*], for which, in the data set with HBV (setting [2]), the EC50 was determined as 0.07 µM. Further, the CC50 at 3 days in data set [1] was above 50 µM.
Regarding `C[C@H]1[C@@H](C(=O)Nc2cc(F)c(F)c(F)c2)CCN1C(=O)C(=O)N[C@H](CC(F)(F)F)c1c[nH]nn1` (single isomer, unassigned) [C29R*], the EC50 in the data set on HBV (setting [2]) came out at 0.014 µM. For the same molecule, the 50% cytotoxic concentration (CC50) at 3 days in data set [1] was above 50 µM.
For `C[C@H]1[C@@H](C(=O)Nc2cc(F)c(F)c(F)c2)CCN1C(=O)C(=O)N[C@@H](CC(F)(F)F)c1c[nH]nn1` (single isomer, unassigned) [C29S*], the EC50 with HBV (setting [2]) was determined as 0.042 µM. The molecule also returned a 50% cytotoxic concentration (CC50) at 3 days in data set [1] above 50 µM.
The corresponding values for `C[C@H]1[C@@H](C(=O)Nc2ccc(F)c(C(F)(F)F)c2)CCN1C(=O)C(=O)N[C@H](CC(F)(F)F)c1c[nH]nn1` (single isomer, unassigned) [C30R*] are 0.037 µM and above 50 µM.
The corresponding values for `C[C@H]1[C@@H](C(=O)Nc2ccc(F)c(C(F)(F)F)c2)CCN1C(=O)C(=O)N[C@@H](CC(F)(F)F)c1c[nH]nn1` (single isomer, unassigned) [C30S*] are 0.06 µM and above 50 µM.
For `C[C@H]1[C@@H](C(=O)Nc2ccc(F)c(C(F)F)c2F)CCN1C(=O)C(=O)N[C@H](CC(F)(F)F)c1c[nH]nn1` (single isomer, unassigned) [C31R*], the EC50 in the data set on HBV (setting [2]) came out at 0.021 µM. Moreover, the CC50 at 3 days in data set [1] is above 50 µM.
Taken in the same sequence, the figures for `C[C@H]1[C@@H](C(=O)Nc2ccc(F)c(C(F)F)c2F)CCN1C(=O)C(=O)N[C@@H](CC(F)(F)F)c1c[nH]nn1` (single isomer, unassigned) [C31S*] were 0.056 µM and above 50 µM.
As to `C[C@H]1[C@@H](C(=O)Nc2cc(F)c(F)c(Cl)c2)CCN1C(=O)C(=O)N[C@H](CC(F)(F)F)c1c[nH]nn1` (single isomer, unassigned) [C32R*], in the data set with HBV (setting [2]), the EC50 came to 0.007 µM. Besides, in data set [1], the CC50 at 3 days was above 50 µM.
In the case of `C[C@H]1[C@@H](C(=O)Nc2cc(F)c(F)c(Cl)c2)CCN1C(=O)C(=O)N[C@@H](CC(F)(F)F)c1c[nH]nn1` (single isomer, unassigned) [C32S*], the EC50 in the data set on HBV (setting [2]) stood at 0.031 µM. In data set [1], this molecule registered a CC50 at 3 days above 50 µM.
For `C[C@H]1[C@@H](C(=O)Nc2cc(F)c(F)c(F)c2)CCN1C(=O)C(=O)N[C@](C)(CC(F)F)c1c[nH]nn1` (single isomer, unassigned) [C33R*], the EC50 in the data set on HBV (setting [2]) turned out to be 0.034 µM. In data set [1], this molecule registered a CC50 at 3 days above 50 µM.
`C[C@H]1[C@@H](C(=O)Nc2cc(F)c(F)c(F)c2)CCN1C(=O)C(=O)N[C@@](C)(CC(F)F)c1c[nH]nn1` (single isomer, unassigned) [C33S*]: in the data set with HBV (setting [2]), the EC50 worked out at 0.04 µM. In data set [1], this molecule yielded a CC50 at 3 days above 50 µM.
Consider `C[C@H]1[C@@H](C(=O)Nc2ccc(F)c(Cl)c2)CCN1C(=O)C(=O)N[C@H](CC(F)(F)F)c1c[nH]nn1` (single isomer, unassigned) [C34R*], for which the concentration for a half-maximal effect (EC50) with HBV (setting [2]) turned out to be 0.003 µM. Moreover, in data set [1], the cytotoxic concentration (CC50) at 3 days is above 50 µM.
In the case of `C[C@H]1[C@@H](C(=O)Nc2ccc(F)c(Cl)c2)CCN1C(=O)C(=O)N[C@@H](CC(F)(F)F)c1c[nH]nn1` (single isomer, unassigned) [C34S*], in the data set on HBV (setting [2]), the EC50 came out at 0.035 µM. Also, the CC50 at 3 days in data set [1] is above 50 µM.
For `C[C@H]1[C@@H](C(=O)Nc2ccc(F)c(Cl)c2F)CCN1C(=O)C(=O)N[C@H](CC(F)(F)F)c1c[nH]nn1` (single isomer, unassigned) [C37R*], in the data set with HBV (setting [2]), the EC50 came out at 0.014 µM. In addition, the CC50 at 3 days in data set [1] was above 50 µM.
Take `C[C@H]1[C@@H](C(=O)Nc2ccc(F)c(Cl)c2F)CCN1C(=O)C(=O)N[C@@H](CC(F)(F)F)c1c[nH]nn1` (single isomer, unassigned) [C37S*]: the EC50 in the data set on HBV (setting [2]) came to 0.043 µM. Besides, the CC50 at 3 days in data set [1] is above 50 µM.
With `N#Cc1cc(NC(=O)[C@H]2CCN(C(=O)C(=O)NC3(c4c[nH]nn4)CC(F)(F)C3)C2)ccc1F` [C1, (3S)—N-(3-Cyano-4-fluorophenyl)-1-[{[3,3-difluoro-1-(1H-1,2,3-triazol-4-yl)cyclobutyl]amino}(oxo)acetyl]pyrrolidine-3-carboxamide], the EC50 in the data set on HBV (setting [2]) amounted to 0.15 µM. The molecule further displayed a CC50 at 3 days in data set [1] above 50 µM.
Regarding `N#Cc1cc(NC(=O)[C@H]2CCN(C(=O)C(=O)NC3(c4c[nH]nn4)CC(F)(F)C3)C2)ccc1F` [C1•HCl, (3S)—N-(3-Cyano-4-fluorophenyl)-1-[{[3,3-difluoro-1-(1H-1,2,3-triazol-4-yl)cyclobutyl]amino}(oxo)acetyl]pyrrolidine-3-carboxamide hydrochloride], in the data set on HBV (HepG2.117 cell line, 3 days of treatment, intracellular HBV DNA, mean value, hydrochloride), the EC50 was determined as 0.27 µM.
Take `Cc1cc(NC(=O)[C@H]2CCN(C(=O)C(=O)NC3(c4c[nH]nn4)CC(F)(F)C3)C2)ccc1F` [C2, (3S)-1-[{[3,3-Difluoro-1-(1H-1,2,3-triazol-4-yl)cyclobutyl]amino}(oxo)acetyl]-N-(4-fluoro-3-methylphenyl)pyrrolidine-3-carboxamide]: the half-maximal effective concentration (EC50) with HBV (setting [2]) was found to be 0.079 µM. In data set [1], this molecule had a CC50 at 3 days above 50 µM.
As for `C[C@H]1[C@@H](C(=O)Nc2cc(F)c(F)c(F)c2)CCN1C(=O)C(=O)NC1(c2c[nH]nn2)CC(F)(F)C1` [C3, (2S,3S)-1-[{[3,3-Difluoro-1-(1H-1,2,3-triazol-4-yl)cyclobutyl]amino}(oxo)acetyl]-2-methyl-N-(3,4,5-trifluorophenyl)pyrrolidine-3-carboxamide], the EC50 with HBV (setting [3]) was 0.011 µM. Further, the 50% cytotoxic concentration (CC50) at 3 days in data set [1] is above 50 µM.
For `O=C(NC1(c2c[nH]nn2)CC(F)(F)C1)C(=O)N1CC[C@H](C(=O)Nc2cc(F)c(F)c(F)c2)C1` [C4, (3S)-1-[{[3,3-Difluoro-1-(1H-1,2,3-triazol-4-yl)cyclobutyl]amino}(oxo)acetyl]-N-(3,4,5-trifluorophenyl)pyrrolidine-3-carboxamide], the EC50 in the data set on HBV (setting [2]) stood at 0.053 µM. The molecule also yielded a CC50 at 3 days in data set [1] above 50 µM.
`O=C(NC1(c2c[nH]nn2)CC(F)(F)C1)C(=O)N1CC[C@H](C(=O)Nc2ccc(F)c(Cl)c2)C1` [C5, (3S)—N-(3-Chloro-4-fluorophenyl)-1-[{[3,3-difluoro-1-(1H-1,2,3-triazol-4-yl)cyclobutyl]amino}(oxo)acetyl]pyrrolidine-3-carboxamide]: the EC50 with HBV (setting [3]) turned out to be 0.04 µM. In addition, the CC50 at 3 days in data set [1] was above 50 µM.
The corresponding values for `C[C@H]1[C@@H](C(=O)Nc2ccc(F)c(C#N)c2)CCN1C(=O)C(=O)NC1(c2c[nH]nn2)CC(F)(F)C1` [C6, (2S,3S)—N-(3-Cyano-4-fluorophenyl)-1-[{[3,3-difluoro-1-(1H-1,2,3-triazol-4-yl)cyclobutyl]amino}(oxo)acetyl]-2-methylpyrrolidine-3-carboxamide] are 0.044 µM and above 50 µM.
With `O=C(NC1(c2c[nH]nn2)CC(F)(F)C1)C(=O)N1CC[C@H](C(=O)Nc2ccc(Cl)c(Cl)c2)C1` [C7], in the data set on HBV (setting [2]), the EC50 turned out to be 0.1 µM. In data set [1], this molecule gave a CC50 at 3 days above 50 µM.
Taken in the same sequence, the figures for `O=C(NC1(c2c[nH]nn2)CC(F)(F)C1)C(=O)N1CC[C@H](C(=O)Nc2cc(F)c(F)c(Cl)c2)C1` [C8] were 0.045 µM and above 50 µM.
In the case of `C[C@@H]1CN(C(=O)C(=O)NC2(c3c[nH]nn3)CC(F)(F)C2)C[C@H]1C(=O)Nc1cc(F)c(F)c(F)c1` [C9], the EC50 with HBV (setting [2]) amounted to 0.204 µM. This molecule also returned a CC50 at 3 days in data set [1] above 50 µM.
The corresponding values for `C[C@H]1CN(C(=O)C(=O)NC2(c3c[nH]nn3)CC(F)(F)C2)C[C@H]1C(=O)Nc1cc(F)c(F)c(F)c1` [C10] are 0.578 µM and above 50 µM.
Take `O=C(NC1(c2c[nH]nn2)CC(F)(F)C1)C(=O)N1CC[C@H](C(=O)Nc2ccnc(Cl)c2)C1` [C11]: in the data set on HBV (setting [2]), the EC50 was determined as 1.5 µM. This molecule also gave a CC50 at 3 days in data set [1] above 50 µM.
The corresponding values for `O=C(NC1(c2c[nH]nn2)CC(F)(F)C1)C(=O)N1CC[C@H](C(=O)Nc2ccnc(C(F)F)c2)C1` [C12] are 1.29 µM and above 50 µM.
Consider `C[C@H]1C[C@H](C(=O)Nc2ccc(F)c(C#N)c2)CN1C(=O)C(=O)NC1(c2c[nH]nn2)CC(F)(F)C1` [C13], for which, in the data set on HBV (setting [2]), the EC50 turned out to be 0.061 µM. The molecule further had a half-maximal cytotoxic concentration (CC50) at 3 days in data set [1] above 50 µM.
With `C[C@H]1[C@@H](C(=O)Nc2ccc(F)c(C(F)F)c2F)CCN1C(=O)C(=O)NC1(c2c[nH]nn2)CC(F)(F)C1` [C14], in the data set on HBV (setting [2]), the EC50 was determined as 0.019 µM. Moreover, the CC50 at 3 days in data set [1] was above 50 µM.
Taken in the same sequence, the figures for `C[C@H]1[C@@H](C(=O)Nc2ccc(Cl)c(Cl)c2)CCN1C(=O)C(=O)NC1(c2c[nH]nn2)CC(F)(F)C1` [C15] were 0.014 µM and 35.2 µM.

What is called EC50 is the concentration at which the effect is half-maximal. What is called CC50 is the concentration giving 50% cytotoxicity.
